How the values were obtained:
Format in all cases: cell-based
[1] = test system: Zeocin treated recombinant bioluminescent E. coli HB101 assay reagent; assay: ZnSO4 sensitivity assay, Zeocin treated assay reagent; conditions: for SENSITIVITY-EC50 VALUES, ZEOCIN TREATED: 15 minutes exposure to ZnSO4, % toxic effect on light output
Method: (§1) 1. Bioluminescent genetically modified E. coil strain HB101 (E. coli HB101 made bioluminescent by transformation with a plasmid carrying the lux operon of vibrio fischeri constructed by the method of Shaw and Kado, as described in Biotechnology 4: 560-564) was grown in fermenter as a batch culture in low salt medium (LB(5 g/ml NaCl)+glycerol+MgSO4).
(§2) 2. Two aliquots of the culture were removed from the fermenter into separate sterile shaker flasks at each of three different stages of growth i.e. at OD630 values of 0.038 (lag phase growth), 1.31 (mid-exponential phase growth) and 2.468 (stationary phase growth).
3. One aliquot of culture for each of the three growth stages was inactivated by contact with Zeocin™ (1 mg Zeocin™ added per 2.5×10^6 cells, i.e. the concentration of Zeocin™ per cell is kept constant) for 300 minutes and then processed into assay reagent by freeze drying and reconstitution, as described in part (B) of Example 1.
(§3) 5. Samples of each of the three Zeocin™ treated and three control assay reagents were then evaluated for sensitivity to toxicant (ZnSO4) according to the following assay protocol:
1. ZnSO4 solutions were prepared in pure water at 30, 10, 3, 1, 0.3 and 0.1 ppm. Pure water was also used as a control.
2. Seven vials of each of the three Zeocin™ treated and each of the three control assay reagents (i.e. one for each of the six ZnSO4 solutions and one for the pure water control) were reconstituted using 0.5 ml of reconstitution solution (eg 0.2M sucrose) and then left to stand at room temperature for 15 minutes to allow the light output to stabilize. Base line (time zero) readings of light output were then measured for each of the reconstituted reagents.
3. 0.5 ml aliquots of each of the six ZnSO4 solutions and the pure water control were added to separate vials of reconstituted assay reagent. This was repeated for each of the different Zeocin™ treated and control assay reagents.
(§4) 4. The vials were incubated at room temperature and light output readings were taken 5, 10, 15, 20, 25 and 30 minutes after addition of ZnSO4 solution.
5. The % toxic effect for each sample was calculated as follows: [formula]
where: Co=light in control at time zero
Ct=light in control at reading time
So=light in sample at time zero
(§5) St=light in sample at reading time

[2] = test system: control (Zeocin untreated) recombinant bioluminescent E. coli HB101 assay reagent; assay: ZnSO4 sensitivity assay, control assay reagent; conditions: 15 minutes exposure to ZnSO4, % toxic effect on light output
Method: as §1, §2
4. An equal volume of water was added to the second aliquot of culture for each of the three growth stages and the cultures processed into assay reagent as described above.
as §3
1. […]
2. […] Base line (time zero) readings of light output were then measured for each of the reconstituted reagents. […]
as §4
5. The % toxic effect for each sample was calculated as follows: [formula] […]
Ct=light in control at reading time […]
as §5

[3] = test system: recombinant bioluminescent E. coli strain HB101; assay: Inactivation of bioluminescent E. coli: viable count time course; conditions: 1.5 mg/ml Zeocin; exponential growth phase culture
Method: (§6) 1. Bioluminescent genetically modified E. coil strain HB101 (E. coli HB101 made bioluminescent by transformation with a plasmid carrying the lux operon of Vibrio fischeri constructed by the method of Shaw and Kado, as described in Biotechnology 4: 560-564) were grown from a frozen stock in 5 ml of low salt medium (LB (5 g/ml NaCl)+glycerol+MgSO4) for 24 hours.
(§7) 2. 1 ml of the 5 ml culture was then used to inoculate 200 ml of low salt medium in a shaker flask and the resultant culture grown to an OD630 of 0.407 (exponential growth phase).
(§8) 3. 50 ml of this culture was removed to a fresh sterile shaker flask (control cells).
4. Zeocin™ was added to the 150 ml of culture in the original shaker flash, to a final concentration of 1.5 mg/ml. […]
5. The time course of cell inactivation was monitored by removing samples from the culture at 5, 60, 120, 180, 240 and 300 minutes after the addition of Zeocin™ and taking measurements of both light output (measured using a Deltatox luminometer) and viable count (per ml, determined using the method given in Example 3 below) for each of the samples. […]
5. The number of bacterial colonies present for each of the three aliquots at each of the serial dilutions were counted and the values averaged. Viable count was calculated per ml of bacterial culture.

[4] = test system: recombinant bioluminescent E. coli strain HB101; assay: Light output of culture during Zeocin treatment (Deltatox luminometer); conditions: 1.5 mg/ml Zeocin; 5 to 300 minutes
Method: as §6, §7, §8
4. Zeocin™ was added to the 150 ml of culture in the original shaker flash, to a final concentration of 1.5 mg/ml. At the same time, an equivalent volume of water was added to the 50 ml culture removed from the original flask (control cells).
5. The time course of cell inactivation was monitored by removing samples from the culture at 5, 60, 120, 180, 240 and 300 minutes after the addition of Zeocin™ and taking measurements of both light output (measured using a Deltatox luminometer) and viable count (per ml, determined using the method given in Example 3 below) for each of the samples. Samples of the control cells were removed at 5 and 300 minutes after the addition of water and measurements of light output and viable count taken as for the Zeocin™ treated cells.

[5] = test system: recombinant bioluminescent E. coli strain HB101; assay: Light output of reconstituted freeze dried assay reagent; conditions: cells exposed to 1.5 mg/ml Zeocin for 5 hours, reconstituted in 0.2M sucrose
Method: Five hours after the addition of Zeocin™ or water the remaining bacterial cells in the Zeocin™ treated and control cultures were harvested by the centrifugation, washed (to remove traces of Zeocin™ from the Zeocin™ treated culture), re-centrifuged and resuspended in cryoprotectant to an OD630 of 0.25. 200 μl aliquots of the cells in cryoprotectant were dispensed into single shot vials, and freeze dried. Freeze dried samples of the Zeocin™ treated cells and control cells were reconstituted in 0.2M sucrose to form assay reagents and the light output of the assay reagents measured at various times after reconstitution.

Structure (SMILES)	SENSITIVITY-EC50 VALUES, ZEOCIN TREATED ([1]; Expotential phase assay reagent)	SENSITIVITY-EC50 VALUES, ZEOCIN TREATED ([1]; Lag Phase assay reagent)	SENSITIVITY-EC50 VALUES, ZEOCIN TREATED ([1]; Stationary phase assay reagent)	SENSITIVITY-EC50 VALUES, CONTROL CELLS ([2]; Lag Phase assay reagent)	SENSITIVITY-EC50 VALUES, CONTROL CELLS ([2]; Stationary phase assay reagent)	contact time for complete inactivation of the culture (viable count) [3]	light output from the culture with Zeocin contact time [4]	light output of reconstituted assay reagent versus control (Zeocin untreated) cells [5]	effect of Zeocin treatment on sensitivity of assay reagent to ZnSO4 ([1]; 1 mg Zeocin per 2.5×10^6 cells for 300 minutes, three growth stages, versus control reagents)
O=S(=O)([O-])[O-].[Zn+2] [ZnSO4]	0.446 ppm ZnSO4	1.445 ppm ZnSO4	0.426 ppm ZnSO4	1.580 ppm ZnSO4	0.457 ppm ZnSO4	–	–	–	–
Cc1c(N)nc([C@H](CC(N)=O)NC[C@H](N)C(N)=O)nc1C(=O)N[C@H](C(=O)N[C@H](C)[C@@H](O)[C@H](C)C(=O)N[C@H](C(=O)NCCC1=N[C@@H](c2nc(C(=O)NCCCCN=C(N)N)cs2)CS1)[C@@H](C)O)[C@@H](O[C@@H]1O[C@@H](CO)[C@@H](O)[C@H](O)[C@@H]1O[C@H]1O[C@H](CO)[C@@H](O)[C@H](OC(N)=O)[C@@H]1O)c1cnc[nH]1 [Zeocin™, phleomycin D1]	–	–	–	–	–	3 h	decrease gradually	not significantly different	does not significantly affect

From patent US6524810B2, “Method of making bioluminescent assay reagent based on non-viable E. coli” (Azur Environmental, priority 1998, dated 2003)
